Experimental data: PubChem BioAssay (NCI)
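Dose response: 5 concentrations. Exposure: 48 h. Format: 96-well plates. Endpoint: linear interpolation; highest concentration if not reached. GI50 is the concentration that inhibits growth by half. TGI marks complete inhibition of growth.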

Assays:
Experiment in all cases: NCI anticancer screen, dose series, 48 h
[1] = test system: EKVX NSCLC
[2] = test system: KM12 colon
[3] = test system: TK-10 renal
[4] = test system: SK-MEL-28 melanoma
[5] = test system: UACC-257 melanoma
[6] = test system: SF-268 CNS
[7] = test system: NCI-H522 lung
[8] = test system: COLO 205 colon
[9] = test system: SK-OV-3 ovarian
[10] = test system: IGROV1 ovarian

| Structure (SMILES) | TGI [1] | TGI [2] | TGI [3] | TGI [4] | TGI [5] | TGI [6] | TGI [7] | TGI [8] | TGI [9] | TGI [10] | GI50 [1] | GI50 [2] | GI50 [3] | GI50 [9] | GI50 [5] | GI50 [10] | GI50 [6] | GI50 [7] | GI50 [8] | GI50 [4] |
| --- | --- | --- | --- | --- | --- | --- | --- | --- | --- | --- | --- | --- | --- | --- | --- | --- | --- | --- | --- | --- |
| CC(=O)Oc1ccc(O)c(O)c1C/C=C(\C)CC/C=C(\C)CC/C=C(\C)CCC=C(C)C | 3.81 µM | 11.5 µM | 2.6 µM | 2.19 µM | 2.26 µM | 2.18 µM | 6.84 µM | 0.341 µM |  |  |  |  |  |  |  |  |  |  |  |  |
| COc1ccc2oc3cccc(NCCN(C)C)c3c(=O)c2c1 | 29.2 µM | 26.7 µM | 28.2 µM | 32.9 µM | 30.8 µM | 28.3 µM |  | 19.1 µM | 28.7 µM | 31.2 µM |  |  |  |  |  |  |  |  |  |  |
| S=c1[nH]c2ccc(Br)cc2c(=S)n1-c1ccccc1 | > 100 µM | 72.5 µM | > 100 µM | 59.9 µM | 36.9 µM | > 100 µM |  | 47.1 µM | 85.6 µM | 89.1 µM |  |  |  |  |  |  |  |  |  |  |
| Cc1nc2sc(C(=O)Nc3ccccc3)c(N)c2cc1C(=O)/C=C/c1ccccc1 | 6.48 µM | 3.38 µM | 6.39 µM |  | 5.29 µM | 9.93 µM | 4.24 µM | 4.49 µM | 23.3 µM | 4.73 µM | 2.26 µM | 1.73 µM | 2.3 µM | 4.03 µM | 2.11 µM | 1.99 µM | 2.94 µM | 1.77 µM | 2.02 µM |  |
| CCOC(=O)C(=O)Nc1c(C)cccc1C | > 100 µM | > 100 µM | > 100 µM | > 100 µM | > 100 µM | > 100 µM |  | > 100 µM | > 100 µM | > 100 µM |  |  |  |  |  |  |  |  |  |  |
| Cc1ccc(NC(=O)/C(=N\Nc2ccc([N+](=O)[O-])cc2[N+](=O)[O-])C2C(=O)NC(=O)NC2=O)cc1 |  | > 100 µM | > 100 µM | > 100 µM | > 100 µM | > 100 µM | > 100 µM | > 100 µM | > 100 µM | > 100 µM |  |  |  |  |  |  |  |  |  |  |
| CC(C)(C)c1ccc(S(=O)(=O)N[C@H]2CC[C@H]3[C@@H]4CCc5cc(OS(=O)(=O)O)ccc5[C@H]4CC[C@]23C)cc1 |  | 4.01 µM | 12.4 µM | 3.38 µM | 9.11 µM | 11.5 µM | 5.15 µM | 3.29 µM | 8.54 µM | 10.9 µM |  | 2.08 µM | 3.69 µM | 2.92 µM | 2.75 µM | 3.63 µM | 3.14 µM | 1.93 µM | 1.83 µM | 1.8 µM |
| CC(=O)[O-].CC(=O)[O-].[NH2-].[Pt+2].c1ccc2cnccc2c1 |  | > 100 µM | 90.7 µM | > 100 µM | 6.49 µM | > 100 µM | 24.9 µM | > 100 µM | > 100 µM | > 100 µM |  | 13.5 µM | 15.5 µM | > 100 µM |  | 24.6 µM | 18.8 µM | 12.4 µM | 24.7 µM | 52.6 µM |
| Cc1cc(=O)oc2cc3c(cc12)Oc1ccccc1O3 | > 10 µM | > 100 µM | > 100 µM | > 100 µM | > 100 µM | > 100 µM |  | > 100 µM | > 100 µM | > 100 µM |  |  |  |  |  |  |  |  |  |  |
| Cn1nc(-c2ccccc2)c(C(=O)/C=C/c2ccccc2)c(N2CCOCC2)c1=O |  |  | 89.4 µM |  |  | 32.6 µM | 29.9 µM | 35.9 µM | 81 µM | 52.9 µM |  |  |  |  |  |  |  |  |  |  |
| COc1ccc(C(C#N)NNc2nc(C)cc(=O)[nH]2)cc1OC (stereo not drawn) |  | > 100 µM | > 100 µM | > 100 µM | > 100 µM | > 100 µM | > 100 µM | > 100 µM | > 100 µM | > 100 µM |  |  |  |  |  |  |  |  |  |  |
| COc1c(N2CCN(CN3C(=O)C(=Nc4ccc(S(=O)(=O)Nc5ncccn5)cc4)c4ccccc43)C(C)C2)c(F)cc2c(=O)c(C(=O)O)cn(C3CC3)c12 (stereo not drawn) | > 50 µM | > 50 µM | 43.7 µM | > 50 µM | > 50 µM | > 50 µM | > 50 µM | > 50 µM |  | > 50 µM | > 50 µM | 40.8 µM | 11.9 µM |  | 47 µM | 19.2 µM | 44.1 µM | > 50 µM | 0.269 µM | > 50 µM |
| CCCCCCCCCCCC[n+]1ccc(CCCCCCCCC)cc1 |  |  | 2.76 µM | 2.86 µM |  | 2.94 µM | 2.19 µM |  | 2.89 µM |  |  |  | 1.35 µM | 1.51 µM |  |  | 1.38 µM | 0.695 µM |  | 1.31 µM |
| COc1ccc(C2S/C(=C\c3ccc(O)cc3)C(=O)N2NC(=O)Cc2ccccc2)cc1 (stereo not drawn) |  | > 100 µM | > 100 µM | > 100 µM | > 100 µM | > 100 µM | > 100 µM | > 100 µM | > 100 µM | > 100 µM |  |  |  |  |  |  |  |  |  |  |
